Experimental data reported in patent US6410558B1, “Fungicides for the control of take-all disease of plants” (Monsanto Technology LLC, priority 1991, dated 2002).

Tested on: Gaeumannomyces graminis var. tritici (Ggt)
Test: In vitro Assay: mycelial growth of Ggt on minimal media agar plates containing test compound
Type: cell-based
Conditions: dark, 19-20° C., 4 to 5 days, diameter of mycelial growth; for inhibition at 0.1 ppm / inhibition at 1 ppm / inhibition at 10 ppm: Gaeumannomyces graminis; for inhibition at 0.1 ppm / In vitro (ppm) 0.1, Percent Inhibition: 0.1 ppm in minimal media agar; for inhibition at 0.1 ppm: read-out: In vitro (ppm) 0.1, Percent Inhibition; for inhibition at 1 ppm / In vitro (ppm) 1, Percent Inhibition: 1 ppm in minimal media agar; for inhibition at 1 ppm: read-out: In vitro (ppm) 1, Percent Inhibition; for inhibition at 10 ppm / In vitro (ppm) 10, Percent Inhibition: 10 ppm in minimal media agar; for inhibition at 10 ppm: read-out: In vitro (ppm) 10, Percent Inhibition
How it was run: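 Ggt mycelial diameter read after 4 to 5 days in darkness at 19-20° C, from three 4-mm plugs placed on Czapek Dox minimal agar containing test compound delivered in acetone. Inhibition expressed as percent versus untreated plates, plug size (4 mm) subtracted from both.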

With `CC(C)CSC(=O)c1c(Cl)cccc1[Si](C)(C)C` [Example 81, 2-Chloro-6-(trimethylsilyl)-benzenecarbothioic acid, S-(2-methylpropyl) ester] the inhibition at 0.1 ppm was < 0%, the inhibition at 1 ppm was < 0% and the inhibition at 10 ppm was 46%.

In the case of `CC(C)N(C)C(=O)c1c(Cl)cccc1[Si](C)(C)C` [Example 164, 2-Chloro-N-methyl-N-(1-methylethyl)-6-(trimethylsilyl)benzamide], the inhibition at 0.1 ppm is reported as 3%, the inhibition at 1 ppm is reported as 3% and the inhibition at 10 ppm is reported as 70%.

In the case of `CC(C)SC(=O)c1c(Cl)cccc1[Si](C)(C)C` [Example 78, 2-Chloro-6-(trimethylsilyl)-benzenecarbothioic acid, S-(1-methylethyl) ester], the inhibition at 0.1 ppm is reported as 12%, the inhibition at 1 ppm is reported as 12% and the inhibition at 10 ppm is reported as 62%.

In the case of `CCNC(=O)c1cccc([N+](=O)[O-])c1[Si](C)(C)C` [Example 246, N-Ethyl-3-nitro-2-(trimethylsilyl)benzamide], the inhibition at 0.1 ppm is reported as < 0%, the inhibition at 1 ppm is reported as 2% and the inhibition at 10 ppm is reported as 61%.

`CCNC(=O)c1c(Cl)cccc1-c1ccc2ccccc2c1` [Example 122, 2-Chloro-N-ethyl-6-(2-naphthalenyl)benzamide] was tested, and the inhibition at 0.1 ppm was < 0%, the inhibition at 1 ppm was < 0% and the inhibition at 10 ppm was 67%.

`C=CCN(SC)C(=O)c1sc(Cl)cc1[Si](C)(C)C` [Example 273, 5-Chloro-N-(methylthio)-N-2-propenyl-3-(trimethylsilyl)-2-thiophenecarboxamide] was tested, and the inhibition at 0.1 ppm was 35%, the inhibition at 1 ppm was 48% and the inhibition at 10 ppm was 100%.

With `C[Si](C)(C)c1cccc(Cl)c1C(=O)NC1CCC1` [Example 163, 2-Chloro-N-cyclobutyl-6-(trimethylsilyl)benzamide] the inhibition at 0.1 ppm was 24%, the inhibition at 1 ppm was 85% and the inhibition at 10 ppm was 100%.

With `CCNC(=O)c1c([Si](C)(C)C)ccc(I)c1Cl` [Example 239, 2-Chloro-N-ethyl-3-iodo-6-(trimethylsilyl)benzamide] the inhibition at 0.1 ppm was 22%, the inhibition at 1 ppm was 57% and the inhibition at 10 ppm was 87%.

With `CCNC(=O)c1c(Cl)ccc[c]1[Sn]([CH3])([CH3])[CH3]` [Example 115, 2-Chloro-N-ethyl-6-(trimethylstannyl)benzamide] the “In vitro (ppm) 0.1, Percent Inhibition” value was 97%, the “In vitro (ppm) 1, Percent Inhibition” value was 97% and the “In vitro (ppm) 10, Percent Inhibition” value was 97%.

Work on `CCNC(=O)c1c(I)cccc1[Si](C)(C)C` [Example 207, N-Ethyl-2-iodo-6-(trimethylsilyl)benzamide] yielded an inhibition at 0.1 ppm of 31%, an inhibition at 1 ppm of 90% and an inhibition at 10 ppm of 97%.

`CCNC(=O)c1c(Cl)cc(Cl)cc1[Si](C)(C)C` [Example 234, 2,4-Dichloro-N-ethyl-6-(trimethylsilyl)benzamide] was tested, and the inhibition at 0.1 ppm was < 0%, the inhibition at 1 ppm was 32% and the inhibition at 10 ppm was 81%.

In the case of `CCNC(=O)c1sc([S+](C)[O-])cc1[Si](C)(C)C` (stereo not drawn) [Example 260, N-Ethyl-5-(methylsulfinyl)-3-(trimethylsilyl)-2-thiophenecarboxamide], the inhibition at 0.1 ppm is reported as < 0%, the inhibition at 1 ppm is reported as < 0% and the inhibition at 10 ppm is reported as 77%.

Work on `CCOCCN(CC)C(=O)c1c(Cl)cccc1[Si](C)(C)C` [Example 128, 2-Chloro-N-(2-ethoxyethyl)-N-ethyl-6-(trimethylsilyl)benzamide] yielded an inhibition at 0.1 ppm of 4%, an inhibition at 1 ppm of 8% and an inhibition at 10 ppm of 50%.

With `CCN(C(=O)c1ccccc1C(C)(C)C)C(OC)C(C)(C)C` (stereo not drawn) [Example 186, 2-(1,1-Dimethylethyl)-N-ethyl-N-(1-methoxy-2,2-dimethylpropyl)benzamide] the inhibition at 0.1 ppm was < 0%, the inhibition at 1 ppm was < 0% and the inhibition at 10 ppm was 67%.

In the case of `CC(C)N(O)C(=O)c1c(Cl)cccc1[Si](C)(C)C.[Fe+3].[OH-].[OH-].[OH-]` [Example 168, 2-Chloro-N-hydroxy-N-(1-methylethyl)-6-(trimethylsilyl)benzamide, compd. with iron hydroxide (1:1)], the “In vitro (ppm) 0.1, Percent Inhibition” value is reported as 57%, the “In vitro (ppm) 1, Percent Inhibition” value is reported as 96% and the “In vitro (ppm) 10, Percent Inhibition” value is reported as 100%.

In the case of `CCNC(=O)c1cc(Br)sc1[Si](C)(C)C` [Example 268, 5-Bromo-N-ethyl-2-(trimethylsilyl)-3-thiophenecarboxamide], the inhibition at 0.1 ppm is reported as < 0%, the inhibition at 1 ppm is reported as < 0% and the inhibition at 10 ppm is reported as 100%.

Work on `CCNC(=O)c1cc(C(F)(F)F)ccc1[Si](C)(C)C` [Example 225, N-Ethyl-5-(trifluoromethyl)-2-(trimethylsilyl)benzamide] yielded an inhibition at 0.1 ppm of 18%, an inhibition at 1 ppm of 64% and an inhibition at 10 ppm of 95%.

With `C[Si](C)(C)c1cccc(Cl)c1C(=O)NCc1ccc2c(c1)OCO2` [Example 144, N-(1,3-benzodioxol-5-ylmethyl)-2-chloro-6-(trimethylsilyl)benzamide] the inhibition at 0.1 ppm was < 0%, the inhibition at 1 ppm was 11% and the inhibition at 10 ppm was 59%.

Work on `CC(C)NC(=O)c1c(F)cccc1[S+]([O-])C(C)(C)C` (stereo not drawn) [Example 196, N-(1-Methylethyl)-2-[(1,1-dimethylethyl)sulfinyl]-6-fluorobenzamide] yielded an inhibition at 0.1 ppm of 3%, an inhibition at 1 ppm of 56% and an inhibition at 10 ppm of 100%.

With `CN(C(=O)c1c(Cl)cccc1[Si](C)(C)C)C(C)(C)C` [Example 23, 2-Chloro-N-(1,1-dimethylethyl)-N-methyl-6-(trimethylsilyl)benzamide] the inhibition at 0.1 ppm was < 0%, the inhibition at 1 ppm was < 0% and the inhibition at 10 ppm was 71%.

For `CCNC(=O)c1c([Si](C)(C)C)ccc(-c2ccccc2)c1Cl` [Example 242, 2-Chloro-N-ethyl-3-phenyl-6-(trimethylsilyl)benzamide], the inhibition at 0.1 ppm was 27%, the inhibition at 1 ppm was < 0% and the inhibition at 10 ppm was 67%.

For `CCNC(=O)c1c([Si](C)(C)C)csc1Cl` [Example 177, 2-Chloro-N-ethyl-4-(trimethylsilyl)-3-thiophenecarboxamide], the inhibition at 0.1 ppm was 11%, the inhibition at 1 ppm was 19% and the inhibition at 10 ppm was 100%.

Compound `CCOC(=O)Nc1c(Cl)cccc1[Si](C)(C)C` [Example 109, [2-Chloro-6-(trimethylsilyl)phenyl]carbamic acid, ethyl ester] has an inhibition at 0.1 ppm of 10%, an inhibition at 1 ppm of 10% and an inhibition at 10 ppm of 83%.

`CCNC(=O)c1ccsc1[Si](C)(C)C` [Example 70, N-Ethyl-2-(trimethylsilyl)-3-thiophenecarboxamide] was tested, and the inhibition at 0.1 ppm was < 0%, the inhibition at 1 ppm was 15% and the inhibition at 10 ppm was 44%.

For `C#CCNC(=O)c1c(I)cccc1[Si](C)(C)C` [Example 208, 2-Iodo-N-2-propynyl-6-(trimethylsilyl)benzamide], the inhibition at 0.1 ppm was < 0%, the inhibition at 1 ppm was 83% and the inhibition at 10 ppm was 97%.

In the case of `CCNC(=O)c1c([Si](C)(C)C)ccc(SC)c1Cl` [Example 231, 2-Chloro-N-ethyl-3-(methylthio)-6-(trimethylsilyl)benzamide], the inhibition at 0.1 ppm is reported as < 0%, the inhibition at 1 ppm is reported as 76% and the inhibition at 10 ppm is reported as 96%.

Work on `CCNC(=O)c1c(Cl)cc(C=O)cc1[Si](C)(C)C` [Example 193, 2-Chloro-N-ethyl-4-formyl-6-(trimethylsilyl)benzamide] yielded an inhibition at 0.1 ppm of 35%, an inhibition at 1 ppm of 30% and an inhibition at 10 ppm of 57%.
